Reference: patent publication US20200077655A1, “Use of an Acyclic Picolinamide Compound as a Fungicide for Control of Phytopathogenic Fungi in Orchard, Vineyard and Plantation Crops” (Dow AgroSciences LLC, priority 2017, published 2020)

How the values were obtained:
Assay type in all cases: in vivo
[1] = test system: Erysiphe necator (UNCINE); assay: Field assessment of grape powdery mildew; conditions: grapes, 5% EC + Trycol
Text: A fungicidal treatment containing Compound I, applied in a 5% EC formulation and tank mixed with an adjuvant (Trycol, 50% w/w at 0.2% v/v), was sprayed on the plant canopy of grape plants (VITVI, Chardonnay variety) at rates of 50, 100 and 150 grams of active ingredient per hectare (g ai/ha). The trial was based on six foliar applications during the growing season at approximately 10 day intervals with natural infections in open field conditions. The treatment was part of an experimental trial designed as a randomized complete block with four replications and a plot of approximately 3.0×7.0 m. Formulations of compound I were applied at water volume of 1000 L/ha, using a self-propelled multi-plot track sprayer (TRACTAIR, Andreoli Engineering) and pressurized at 400 kPa.
Disease evaluations were recorded as percent of leaves and fruit with disease (incidence) and percent diseased area on leaves and fruit (severity, using 100 random leaves and fruit bunches. Grape powdery mildew was assessed three times, with the initial assessment at 2 days after the fourth application. Area under the disease progress curve (AUDPC) was calculated for each plot using the sets of recorded severity data. Relative AUDPC (% control based on AUDPC) was calculated as percent of the nontreated control. Results are given in Table 8.

[2] = test system: Monilinia fructicola (MONIFC); assay: Field microplot assessment on brown rot on apricots; conditions: field grown apricots
Text: A field trial assessing the utility of Compound I on rot diseases of stone fruits was done using apricots in a microplot method, part of an experimental trial designed as a randomized complete block with four replications. In a microplot method, two mature fruits on a single branch or cluster of fruits were selected for each replication (for a total of 10 replications) instead of using an entire replication. Colored flagging identified treatments. Fungicidal treatments containing Compound I, applied in a 5% EC formulation and tank mixed with an adjuvant (Trycol, 50% w/w at 0.2% v/v), were sprayed on apricots (PRNAR) at rates of 50, 100, and 150 grams of active ingredient per hectare (g ai/ha). The applications to the selected mature apricots were done at 7 days before harvest using a hand held manual spray bottle at a water volume of 500 L/ha. One day after application, a ZipLoc plastic bag was placed over the fruit or fruit cluster and an inoculation mix of MONIFC (Rhizopus was from natural population present in the orchard) was sprayed inside covering the fruits. The plastic bags were removed after 24 hours. At harvest, the fruits were collected in the field and placed in plastic Tupperware containers. 150 mL of de-ionized water was poured in the bottom of the Tupperware containers and the fruits were sprayed with a light mist of water. The containers were brought to the lab, enclosed in a large trash bag to keep the humidity high, and incubated on a lab bench at approximately 23° C. Visual disease incidence was assessed during the trial at 9 and 16 days after application. Area under the disease progress curve (AUDPC) was calculated for each plot using the sets of recorded incidence data. Relative AUDPC (% control based on AUDPC) was calculated as percent of the nontreated control.

[3] = test system: Monilinia fructicola (MONIFC); assay: Field assessment on brown rot of fruits on nectarines, harvest and shelf life simulation; conditions: curative; for Percent control based on fruit incidence vs untreated, Harvest: 8 DAAB
Text: A fungicidal treatment containing Compound I, applied in a 5% EC formulation and tank mixed with an adjuvant (Trycol, 50% w/w at 0.2% v/v), was sprayed twice during fruit ripening on the plant canopy of nectarines (PRNPN, Calfornia variety) at rates of 50, 100, and 150 grams of active ingredient per hectare (g ai/ha). The applications were done at 8 day intervals with disease inoculation 12 days before the first application (curative). The treatment was part of an experimental trial designed as a randomized complete block with four replications and a plot of approximately 4.3×6.0 m, with compound I being applied using a MISTBLOW, Solo backpack applicator at a water volume of 800 L/ha.
The pathogen was certified to be Monilinia fructicola (MONIFC) by means of an immunoassay followed by a PCR assay on material collected (mummies) from the trial. The brown rot disease at harvest was evaluated on 100 randomly picked fruits per plot, 8 days after application B (8 DAAB), calculating the incidence of fruit with disease and then the percent control using Abbotts. Visually healthy samples of 60 fruits per plot were then placed in alveolus plates and kept for 5 days in cold storage. The samples were then maintained for […] at about 20° C. (shelf life period). Several assessments were made to check the development of disease during the shelf life simulation. In particular, the percentage of rotten fruits were checked at the exit from cold storage (after 5 days of refrigeration, 13 DAAB) followed by 15, 17, 20 and 23 DAAB. Percent of fruit with disease was calculated (incidence) amd then percent control was calculated using Abbotts.

[4] = test system: Stigmina carpophila (STIGCA); assay: Field assessment of shot hole in almond, leaf and nut incidence; conditions: for Leaf Incidence of STIGCA 121 DAAA: untreated 3.1; for Nut Incidence of STIGCA 121 DAAA: untreated 6.3
Text: A fungicidal treatment containing Compound I, applied in an SC formulation (MSO built-in) and tank mixed with an adjuvant (Adsee C80W 80%), was sprayed on almond trees (PRNDU, Butte variety), 2 applications, […] The experimental plots were run under natural infestation. The treatment was part of an experimental trial designed as a randomized complete block (RCB) with three replications and a plot of approximately 16×22 ft. Compound I was applied at water volume of 100 gal/acre, using a motorized backpack sprayer (Orifice nozzle 2.3 setting).
Leaf incidence (number of visual diseased leaves per 20 leaves per tree on the whole plot) was assessed 121 days after application A (121 DAAA).
Nut incidence (number of visual diseased nuts per 10 nuts per tree on the whole plot) was assessed 121 days after application A (121 DAAA).

[5] = 120 g ai/ha, Adsee C80W, 300 g ai/ha

In the case of COc1ccnc(C(=O)N[C@@H](C)C(=O)O[C@@H](C)C(c2ccc(F)cc2)c2ccc(F)cc2)c1OC(C)=O [Compound I, (S)-1,1-bis(4-fluorophenyl)propan-2-yl (3-acetoxy-4-methoxypicolinoyl)-L-alaninate], the “Percent control (AUDPC) from bunch infection assessments” value ([1]; 50 g ai/ha) is reported as “B (51-75)”, the “Percent control (AUDPC) from bunch infection assessments” value ([1]; 100 g ai/ha) is reported as “B (51-75)” and the “Percent control (AUDPC) from bunch infection assessments” value ([1]; 150 g ai/ha) is reported as “A (76-100)”. For the same compound, the “Percent control (AUDPC) from leaf infection assessments” value ([1]; 50 g ai/ha) was “A (76-100)”, the “Percent control (AUDPC) from leaf infection assessments” value ([1]; 100 g ai/ha) was “A (76-100)” and the “Percent control (AUDPC) from leaf infection assessments” value ([1]; 150 g ai/ha) was “A (76-100)”. For the same compound, the “Percent control (AUDPC) from fruit incidence, MONIFC” value (from here on “Percent control (AUDPC) … MONIFC”) ([2]; 50 g ai/ha) was “B (51-75)”, the “Percent control (AUDPC) … MONIFC” value ([2]; 100 g ai/ha) was “B (51-75)” and the “Percent control (AUDPC) … MONIFC” value ([2]; 150 g ai/ha) was “B (51-75)”. For the same compound, the “Percent control based on fruit incidence vs untreated, Shelf Life Simulation” value (“Percent control based … Shelf Life Simulation” for short) ([3]; 50 g ai/ha) was “C (26-50)”, the “Percent control based on fruit incidence vs untreated, Harvest” value (“Percent control based … Harvest” below) ([3]; 50 g ai/ha) was “B (51-75)” and the “Percent control based … Shelf Life Simulation” value ([3]; 100 g ai/ha) was “C (26-50)”. For the same compound, the “Percent control based … Harvest” value ([3]; 100 g ai/ha) was “B (51-75)”, the “Percent control based … Shelf Life Simulation” value ([3]; 150 g ai/ha) was “B (51-75)” and the “Percent control based … Harvest” value ([3]; 150 g ai/ha) was “B (51-75)”. The “Leaf Incidence of STIGCA 121 DAAA” value ([4]; 60 g ai/ha, MSO, 120 g ai/ha) was 3.0 Number of Leaves per 20 Leaves, the “Nut Incidence of STIGCA 121 DAAA” value ([4]; 60 g ai/ha, MSO, 120 g ai/ha) was 5.6 Number of Nuts per 10 Nuts and the “Leaf Incidence of STIGCA 121 DAAA” value [4, 5] was 1.4 Number of Leaves per 20 Leaves. The “Nut Incidence of STIGCA 121 DAAA” value [4, 5] was 2.5 Number of Nuts per 10 Nuts, the “Leaf Incidence of STIGCA 121 DAAA” value ([4]; 120 g ai/ha, MSO, 240 g ai/ha) was 2.2 Number of Leaves per 20 Leaves and the “Nut Incidence of STIGCA 121 DAAA” value ([4]; 120 g ai/ha, MSO, 240 g ai/ha) was 6.0 Number of Nuts per 10 Nuts. The “Leaf Incidence of STIGCA 121 DAAA” value ([4]; 150 g ai/ha, MSO, 300 g ai/ha) was 1.7 Number of Leaves per 20 Leaves, the “Nut Incidence of STIGCA 121 DAAA” value ([4]; 150 g ai/ha, MSO, 300 g ai/ha) was 4.4 Number of Nuts per 10 Nuts and the “Leaf Incidence of STIGCA 121 DAAA” value ([4]; 180 g ai/ha, MSO, 360 g ai/ha) was 1.9 Number of Leaves per 20 Leaves. For the same compound, the “Nut Incidence of STIGCA 121 DAAA” value ([4]; 180 g ai/ha, MSO, 360 g ai/ha) was 4.4 Number of Nuts per 10 Nuts.
